Reference: patent US11197908B2, “Peptoids and methods for attenuating inflammatory response” (THE BOARD OF TRUSTEES OF THE UNIVERSITY OF ARKANSAS, priority 2018, dated 2021)
Where a SMILES comes first, the peptide text is derived from it. [ ]: non-standard residue; d: D form. N(1S-Me-propyl)Gly = CC[C@H](C)NCC(=O)O; Nspe = C[C@H](NCC(=O)O)c1ccccc1; Nlys = NCCCCNCC(=O)O

Experiments:
[1] = test system: RAGE; test: Reversal of LPS-induced RAGE expression in previously stimulated THP-1 macrophages (confocal imaging); assay type: cell-based, human; conditions: additional 24 h, vs LPS alone
Procedure: THP-1 monocytes were differentiated as described above 20. Upon differentiation, these cells were then incubated (48 h) with media containing low-dose (2 ng/mL) LPS as a chronic pro-inflammatory stimulus 21. Following incubation, JPT1a or JPT1 was added for final concentrations of 25, 5, and 1 μM 22, and cells were incubated an additional 24 h. Treatment with 2 ng/mL LPS alone served as a positive control, while treatment with an equivalent volume of buffer diluted into media served as the vehicle. Media was collected for later assessment of cytokines via ELISA as described above 23. Cells were fixed and stained for RAGE, phalloidin (cytoplasmic marker), and DAPI (nuclear marker) 24. […] 25 All multi-channel images were converted to TIFF file format via ImageJ64 software for quantitative image analysis using a custom subroutine written in Matlab™ software to obtain the average RAGE expression per volume of cells, and the data generated was assessed for statistical significance using GraphPad Prism 7.0 software 26.
After 48 hours, half of the supernatant was removed, treated with JPT1a (dashed-grey) at final concentrations of 25, 5, 1, and 0 μM (positive control), and then added back to respective samples. […] Images were analyzed via custom MATLAB™ subroutine to determine the average quantity of RAGE present within a given volume of cells. […]

[2] = target: RAGE (Homo sapiens, UniProt Q15109); test: RAGE binding to peptoid-coated 96-well plates, Scatchard plot; conditions: plates coated with 500 nM peptoid; JPT1a n=3 average, JPT1 n=1
Procedure: (§1) As shown in FIGS. 7A-7D, 96-well plates coated with 500 nM JPT1a were treated with concentrations of RAGE (FIG. 7A) or E-cadherin (FIG. 7B) ranging from 1 to 500 nM. Values are reported as the average concentration of bound protein determined from all experiments. Error bars indicate SEM, n=2-5. […] In FIG. 7D, 96-well plates coated with 500 nM JPT1 were treated with concentrations of RAGE ranging from 1 to 350 nM.

[3] = target: T1, E-cadherin (Homo sapiens, UniProt P12830); test: E-cadherin binding to JPT1a-coated 96-well plates; conditions: plates coated with 500 nM JPT1a; E-cadherin 1 to 500 nM
T1 sequence (P12830 155-882): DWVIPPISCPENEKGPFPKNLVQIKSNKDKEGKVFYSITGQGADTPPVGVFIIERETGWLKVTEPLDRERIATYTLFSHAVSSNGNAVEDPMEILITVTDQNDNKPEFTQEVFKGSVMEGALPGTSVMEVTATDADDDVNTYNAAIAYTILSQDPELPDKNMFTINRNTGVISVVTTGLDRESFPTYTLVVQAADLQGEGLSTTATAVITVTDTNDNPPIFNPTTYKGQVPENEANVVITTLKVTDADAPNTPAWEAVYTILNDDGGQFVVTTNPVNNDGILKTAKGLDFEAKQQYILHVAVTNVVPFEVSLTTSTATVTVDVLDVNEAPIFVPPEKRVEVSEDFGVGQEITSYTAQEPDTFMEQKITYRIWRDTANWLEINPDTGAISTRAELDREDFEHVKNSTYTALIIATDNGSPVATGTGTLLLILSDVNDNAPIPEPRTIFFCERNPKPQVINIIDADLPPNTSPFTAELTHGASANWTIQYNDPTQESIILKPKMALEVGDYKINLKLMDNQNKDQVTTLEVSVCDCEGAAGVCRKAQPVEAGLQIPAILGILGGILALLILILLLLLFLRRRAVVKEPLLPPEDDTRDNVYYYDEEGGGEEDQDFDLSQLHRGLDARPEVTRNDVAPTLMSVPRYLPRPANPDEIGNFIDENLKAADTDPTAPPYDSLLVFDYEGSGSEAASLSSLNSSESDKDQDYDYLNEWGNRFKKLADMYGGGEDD
Procedure: as §1

[4] = test system: RAGE; test: Aβ1-42 oligomer induced RAGE expression in THP1 macrophages (confocal imaging); assay type: cell-based, human; conditions: 3 days
Procedure: Aβ1-42 oligomers were prepared at 15 μM through the addition of 12 mM phosphate containing […] to DMSO-solubilized AP. After 15-minute incubation, oligomerization was halted and used to immediately prepare treatments of 10 nM Aβ1-42 oligomers alone (positive control) or in the presence of the peptoid at concentrations ranging from 1 μM to 25 μM. Treatments were applied to THP1 macrophages for 3 days prior to cell fixation and staining. Treatment with 10 nM Aβ1-42 oligomers alone served as a positive control, while treatment with an equivalent volume of buffer diluted into media served as the vehicle. Treatment with 15 μM JPT1a ensured that JPT1a alone had no effect. Cells were fixed and stained for RAGE, phalloidin (cytoplasmic marker), and DAPI (nuclear marker). […] All multi-channel images were converted to TIFF file format via ImageJ64 software for quantitative image analysis using a custom subroutine written in MATLAB™ software to obtain the average RAGE expression per volume of cells.
Treatment with an equivalent volume of buffer diluted into media served as the vehicle. Treatment with 25 μM JPT1a in the presence of vehicle assessed the effect of the peptoid alone (black). Images were analyzed via custom MATLAB™ subroutine to determine the average quantity of RAGE present within a given volume of cells. […]

Sequence of RAGE (Homo sapiens, UniProt Q15109) (Q15109 23-404): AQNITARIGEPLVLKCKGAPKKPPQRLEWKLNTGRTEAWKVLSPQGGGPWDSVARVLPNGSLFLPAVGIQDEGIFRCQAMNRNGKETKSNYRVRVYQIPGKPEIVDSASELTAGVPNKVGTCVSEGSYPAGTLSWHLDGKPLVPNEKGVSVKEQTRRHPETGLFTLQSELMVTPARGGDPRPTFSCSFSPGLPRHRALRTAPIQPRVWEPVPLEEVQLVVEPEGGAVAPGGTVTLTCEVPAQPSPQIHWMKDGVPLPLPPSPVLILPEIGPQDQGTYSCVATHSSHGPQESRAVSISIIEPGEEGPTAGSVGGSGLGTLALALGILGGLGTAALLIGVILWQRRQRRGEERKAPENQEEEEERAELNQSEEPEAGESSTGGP

Kd [2]: 51.8 ± 7.3 nM
binding to E-cadherin [3]: absence of binding
Structure (SMILES): CC[C@H](C)N(CC(=O)N(CC(=O)N(CC(=O)N(CC(=O)N(CC(=O)N(CC(=O)N(CC(N)=O)[C@@H](C)c1ccccc1)[C@@H](C)c1ccccc1)[C@@H](C)CC)[C@@H](C)c1ccccc1)[C@@H](C)c1ccccc1)[C@@H](C)CC)C(=O)CNCCCCN [JPT1a] (H-[Nlys][N(1S-Me-propyl)Gly][N(1S-Me-propyl)Gly][Nspe][Nspe][N(1S-Me-propyl)Gly][Nspe][Nspe]-NH2)
reversal in LPS-induced RAGE expression ([1]; 5 μM added after 48 h of 2 ng/mL LPS): significant reversal
reversal in LPS-induced RAGE expression ([1]; 25 μM added after 48 h of 2 ng/mL LPS): significant reversal
expression of RAGE, JPT1a alone ([4]; 25 μM JPT1a in the presence of vehicle): does not provoke significant response or upregulation
Aβ1-42 oligomer induced RAGE expression ([4]; JPT1a 25, 10, 5 or 1 μM with 10 nM Aβ1-42 oligomers, fraction of positive control): dose-dependent reduction
